In patent publication US12459931B2, “Benzothiophene derivative regulator, preparation method therefor and use thereof” (Shanghai Hansoh Biomedical Co., Ltd., priority 2019, dated 2025):
Where two headings read alike, the source gives them in different places.

What was measured:
[1] = Pharmacokinetic assay in Balb/c mice (plasma and brain tissue); format: in vivo; details: p.o. 5 mg/kg; for AUC(0-t) / AUC(0-inf) / Cmax / MRT / half-life: male, Balb/c, mouse, po; for AUC(0-t): read-out: Area under curve AUC0-t; for AUC(0-inf): read-out: Area under curve AUC0-∞; for Cmax: read-out: Plasma concentration Cmax; for MRT: read-out: Average residence time MRT; for half-life: read-out: Half life t1/2 (converted)
Method: III. Pharmacokinetic Assay in Balb/c Mice
Balb/c mice were used as test animals. The pharmacokinetic behavior of the compounds of Examples of the present invention was studied in mouse body (plasma and brain tissue) by orally administration at a dose of 5 mg/kg.
Male Balb/c mice (12 mice per group), purchased from Shanghai Jiesijie Laboratory Animal Co., LTD, with Certificate No.: SCXK (Shanghai) 2013-0006 N0.311620400001794. • 2.3 Formulation of the preparation: […]
The test compound was dissolved in 0.5% CMC-Na (1% Tween80) by sonication to formulate a clear solution or homogeneous suspension. • 2.4 Administration:
After an overnight fast, male Balb/c mice (12 mice per group) were administered p.o. with the test compound at a dose of 5 mg/kg and a volume of 10 mL/kg. • 2.5 Sample collection:
0.2 mL of blood was taken from the heart of the mouse before administration and at 1, 2, 4, 8 and 24 hours after administration, and the mice were sacrificed with CO2. The samples were stored in EDTA-K2 tubes, and centrifuged for 6 minutes at 4° C., 6000 rpm to separate the plasma. The plasma samples were stored at −80° C. Whole brain tissue was taken out, weighed, placed in a 2 mL centrifuge tube, and stored at −80° C. • 2.6 Sample process:
1) 160 μL of acetonitrile was added to 40 μL of the plasma sample for precipitation, and then the mixture was centrifuged at 3500×g for 5 to 20 minutes.
2) 90 μL of acetonitrile containing internal standard (100 ng/mL) was added to 30 μL of the plasma and brain homogenate sample for precipitation, and then the mixture was centrifuged at 13000 rpm for 8 minutes.
3) 70 μL of water was added to 70 μL of the treated supernatant and mixed by vortex for 10 minutes. 20 μL of the solution was taken to analyze the concentration of the test compound by LC/MS/MS. LC/MS/MS analytical instrument: AB Sciex API 4000 Qtrap. • 2.7 Liquid chromatography analysis: • Liquid chromatography condition: Shimadzu LC-20AD pump • Chromatographic column: Agilent ZORBAX XDB-C18 (50×2.1 mm, 3.5 μm); Mobile phase: Eluent A was 0.1% formic acid in water, and Eluent B was acetonitrile • Flow rate: 0.4 mL/min • Elution time: 0-4.0 minutes the eluent is as follows:
The main parameters of pharmacokinetics were calculated by WinNonlin 6.1.

5-HT2A receptor [2] = target: T1, 5-HT2A receptor (Homo sapiens (Human), UniProt P28223); test: Effect on calcium ion mobility in cells stably expressing 5-HT2A receptors (Flp-In-CHO-5HT2A, FLIPR); format: cell-based; details: Flp-In-CHO-5HT2A cells, 5HT as agonist
Method: To determine the inhibitory effect of the compounds on 5-HT2A receptor.
Probenecid and BSA were added fresh on the day of the experiment.
The calcium signal values were determined by FLIPR. […] The percent inhibition rate and ten-point concentration data were fitted to the parametric nonlinear logistic equation by using GraphPad prism to calculate the IC50 values of the compound.

[3] = target: Human Dopamine D3 Receptor (Homo sapiens (Human), UniProt P35462); test: Radioligand-receptor binding assay, dopamine D3 receptor ([3H]-methylspiperone); details: [3H]-methylspiperone 0.5 nM, human D3 receptor membrane
Method: Determination of the Binding Ability of the Compounds of the Present Invention to Dopamine D3 Receptor
The objective of this test example is to determine the affinity of the compounds for dopamine D3 receptor.
Assay buffer: 50 mM Tris-HCl pH 7.4, 10 mM MgCl2; wash solution: 50 mM Tris-HCl pH 7.4, stored at 4° C.; 0.5% PEI solution: 0.5 g PEI dissolve in 100 mL ddH2O, 4° C. storage of spare.
(§1) 5 μL of the test compounds (0.005 nM to 100 nM, 10 concentrations in total) and 100 μL of buffer were added to a 96-well assay plate. 1 μL of cell membrane and 300 μL of buffer were added to each well, and the plate was shaken at 600 rpm for 5 min. A mixed solution of 100 μL of buffer and [^3H]-methylspiperone (the final concentration was 0.5 nM) was added to each well. The plate was shaken at 600 rpm for 5 min, and incubated at 27° C. for 30 min. The […]-96 GF/B filter plate pre-incubated with 0.5% PEI for 1 h was washed twice with the buffer (1 mL/well). The cell membrane suspension was added to the […]-96 GF/B filter plate, washed 4 times, and incubated at 55° C. for 10 min. 40 μL of ULTIMA GOLD was added to each well, and liquid scintillation counting was carried out.
(§2) The CPM (Counts per minute) values were determined by TopCount. […] The 10 concentrations of the compound were from 100 nM to 0.005 nM after 3-fold dilution of the reaction system. The percent inhibition rate and ten-point concentration data were fitted to the parametric nonlinear logistic equation by using GraphPad prism to calculate the IC50 values of the compound.

5-HT2A receptor [4] = target: T1, 5-HT2A receptor; test: Radioligand-receptor binding assay, 5-HT2A receptor ([3H]-Ketanserin); details: [3H]-Ketanserin 2 nM, human 5-HT2A receptor membrane; read-out: 5HT-2A binding activity IC50
Method: Determination of the Binding Ability of the Compounds of the Present Invention to 5-HT2A Receptor
The objective of this test example is to determine the affinity of the compounds for 5-HT2A receptor.
Assay buffer: 50 mM Tris-HCl pH 7.4, 4 mM CaCl2); wash solution: 50 mM Tris-HCl pH 7.4, stored at 4° C.; 0.5% PEI solution: 0.5 g PEI dissolve in 100 mL ddH2O, 4° C. storage of spare.
as §1, with “plate. 1.5” for “plate. 1”, “300 L” for “300 μL”, “each well. The” for “each well, and the”, “and [^3H]-Ketanserin” for “and [^3H]-methylspiperone”, “was 2” for “was 0.5”
as §2

D3 receptor = D3 receptor (Homo sapiens (Human), UniProt P35462); test: Effect on cAMP content in cells stably expressing D3 receptors (CHO-D3); format: cell-based; details: forskolin stimulated, activation
Method: To determine the activation effect of the compounds on D3 receptor.
3. The experimental buffer (1*HBSS, 0.1% BSA, 20 mM HEPES and 500 μM IBMX) was prepared. The compound was diluted with the buffer. 2.5 μL of the compound solution was added to each well, and the plate was incubated at 37° C. for 10 minutes. The forskolin was diluted to 8 μM (8*) with the experimental buffer. […] The reaction plate was centrifuged at 200 g for 30 s at room temperature, and left to stand at 25° C. for 1 h. Data was collected using Envision.

Rats F344 = test: Pharmacodynamic model of active escape experiment in rats; format: in vivo; details: oral, dose 1 mg/kg, one hour before the test
Method: V. Pharmacodynamic Model of Active Escape Experiment in Rats
To evaluate the anti-schizophrenic effect of the compounds using the pharmacodynamic model of the active escape experiment in rats.
4. Formulation of the Vehicle and Compounds: • 4.1 Vehicle (0.5% CMC-Na+1% Tween80)
A certain mass (such as 1.0 g) of CMC-Na was weighed into a glass bottle, a certain volume (such as 200 mL) of purified water was added, and the resulting mixture was stirred to disperse evenly. 1% (v/v) Tween 80 was added according to the solution volume, and the resulting mixture was stirred overnight to obtain a homogeneous clear solution, which was stored at 2 to 8° C. for later use. • 4.2 Formulation of the compounds: […]
A formula amount of the compound was weighed, followed by the addition of a formula volume of 0.5% CMC-Na+1% Tween 80 solution. The compound solution was formulated before the administration, stored at 2 to 8° C., and used within 4 days.
The day before the compound screening test, a baseline test was performed. The test procedure was the same as 5.1.1 to 5.1.3, and the number of the baseline test was 20. The animals whose number of avoids reached 16 (80%) were grouped according to the number of avoids, 10 animals per group. The first group was administered with the vehicle orally, and the other groups were administered with the corresponding test compounds according to the experimental design. • 5.3 Compound screening test
The compound was administered orally (5 mL/kg) one hour before the test;
The test procedure was the same as 5.1.1 to 5.1.4, and the number of the test was 20.
The following data was collected by the software for data analysis: • Number of avoids of the animal; • Number of escape failures of the animal; • Escape latency of the animal;
All measurement data were expressed as mean±standard error (Mean±SEM), and analyzed by Graphpad 6 statistical software. The difference was considered to be significant when p<0.05.

[5] = Stability assay in liver microsome in vitro; format: in vitro ADME, Mouse
Method: IV. Stability Assay in Liver Microsome In Vitro
To evaluate the metabolic stability of the compounds of the present invention in liver microsome in vitro.
Formulation of the working solution of the compound: 2 μL of the stock solution of the compound was added to 998 μL of phosphate buffer, and the final concentration was 20 μM.
Formulation of the working solution of the control compound (7-hydroxycoumarin): The formulation was consistent with that of the compound. • 3.2. Formulation of the working solution of liver microsome
78.1 μL of 20 mg/mL microsome was diluted to 2.5 mL with 100 mM phosphate buffer and mixed well, and the final concentration was 0.625 mg/mL. • 3.3. Formulation of NADPH and UDPGA
33.3 mg of NADPH and 25.8 mg of UDPGA were weighed respectively, followed by the addition of 2 mL of 100 mM phosphate buffer. The final concentrations were 20 mM. • 3.4. Formulation of the channel-forming reagent (Alamethicin)
1 mg of Alamethicin was weighed, to which 200 μL of DMSO was added to obtain a 5 mg/mL solution. 10 μL of this solution was added to 990 μL of phosphate buffer (pH 7.4), and the final concentration was 50 μg/mL. • 3.5. Formulation of the reaction stop solution
Stop solution: Cold acetonitrile containing 100 ng/mL labetalol hydrochloride and 400 ng/mL tolbutamide was used as internal standards, and stored in a refrigerator at 2 to 8° C. • 3.6. Incubation procedure
400 μL of the formulated liver microsome, 25 μL of the working solution of the compound […] and 25 μL of Alamethicin (50 μg/mL) were added to a 96-well plate successively, which was then pre-incubated at 37° C. for 10 min. 50 μL of the formulated NADPH/UDPGA was added to initiate the reaction, and the plate was incubated at 37° C. The total volume of the reaction system was 500 μL. The final contents of the components were as follows:
[…] The resulting sample was centrifuged at 4000 g for 10 min, and the supernatant was collected for LC-MS/MS analysis.

T1 sequence (P28223 whole entry): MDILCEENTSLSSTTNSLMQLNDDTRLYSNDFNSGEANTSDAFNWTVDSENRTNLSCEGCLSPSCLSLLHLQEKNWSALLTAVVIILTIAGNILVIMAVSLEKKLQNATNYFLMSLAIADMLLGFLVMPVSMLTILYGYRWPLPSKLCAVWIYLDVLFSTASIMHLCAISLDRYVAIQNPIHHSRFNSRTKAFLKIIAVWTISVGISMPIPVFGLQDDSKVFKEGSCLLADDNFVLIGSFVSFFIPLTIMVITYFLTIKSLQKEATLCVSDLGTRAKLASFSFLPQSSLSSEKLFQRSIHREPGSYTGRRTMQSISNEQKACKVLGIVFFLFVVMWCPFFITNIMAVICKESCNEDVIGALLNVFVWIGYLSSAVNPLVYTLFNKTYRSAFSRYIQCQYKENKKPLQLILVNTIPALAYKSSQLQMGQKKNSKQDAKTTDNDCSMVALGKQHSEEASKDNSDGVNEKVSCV
Sequence of Human Dopamine D3 Receptor (P35462 whole entry): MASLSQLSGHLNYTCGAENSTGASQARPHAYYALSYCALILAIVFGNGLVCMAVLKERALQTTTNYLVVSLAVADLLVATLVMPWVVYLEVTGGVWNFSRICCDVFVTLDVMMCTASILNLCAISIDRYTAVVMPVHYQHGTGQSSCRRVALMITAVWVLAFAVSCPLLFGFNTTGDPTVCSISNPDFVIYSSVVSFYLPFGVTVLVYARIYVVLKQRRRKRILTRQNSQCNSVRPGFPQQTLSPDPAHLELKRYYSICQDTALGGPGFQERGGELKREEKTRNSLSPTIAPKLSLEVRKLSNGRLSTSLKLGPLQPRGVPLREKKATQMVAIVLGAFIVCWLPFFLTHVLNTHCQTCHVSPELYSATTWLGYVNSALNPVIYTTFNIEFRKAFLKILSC
Sequence of D3 receptor (P35462 whole entry): as above

Structure (SMILES)	Peak time tmax ([1]; Brain)	Peak time tmax ([1]; Plasma)	AUC(0-t) ([1]; Brain)	AUC(0-inf) ([1]; Brain)	Cmax ([1]; Brain)	AUC(0-t) ([1]; Plasma)	AUC(0-inf) ([1]; Plasma)	MRT ([1]; Plasma)	half-life ([1]; Plasma)	Cmax ([1]; Plasma)	IC50 (5-HT2A receptor [2])	IC50 [3]	IC50 (5-HT2A receptor [4])	EC50 (D3 receptor)	CAR value (Rats F344)	EF (Rats F344)	half-life at 1 μM ([5]; CD-1, liver microsomes, pH 7.4, Mouse liver microsome 0.5 mg/mL, compound 1 μM, NADPH/UDPGA, read-out: Half life (t1/2))	microsomal CLint at 1 μM ([5]; CD-1, liver microsomes, pH 7.4, Mouse liver microsome, note: Slow <8.8, Rapid >48.0, read-out: Intrinsic clearance rate (CLint))	Remaining (%, 120 min) ([5]; Mouse liver microsome, 120 min)
O=C(N[C@H]1CC[C@](F)(CCN2CCN(c3cccc4sccc34)CC2)CC1)c1ccco1 [Example 40, N-(Cis-4-(2-(4-(benzo[b]thiophen-4-yl)piperazin-1-yl)ethyl)-4-fluorocyclohexyl)furan-2-carboxamide]	1 h	6 h	4590 ng·h/mL	4960 ng·h/mL	328 ng/mL	3070 ng·h/mL	3390 ng·h/mL	9.21 h	7.3 h	192 ng/mL	3.16 nM	0.83 nM	0.43 nM						
O=C(N[C@H]1CC[C@H](CCN2CCN(c3cccc4sccc34)CC2)CC1)c1ncco1 [Example 43, N-(Trans-4-(2-(4-(benzo[b]thiophen-4-yl)piperazin-1-yl)ethyl)cyclohexyl)oxazole-2-carboxamide]	1 h	1 h	14100 ng·h/mL	16500 ng·h/mL	1390 ng/mL	4140 ng·h/mL	4860 ng·h/mL	11.8 h	8.9 h	403 ng/mL		0.43 nM	0.37 nM	0.1 nM					
CN(C)C(=O)N[C@H]1CC[C@H](CCN2CCN(c3cccc(Cl)c3Cl)CC2)CC1 [Cariprazine, reference compound]															45.5%	5.5%	1.1 h	21.1 µL/min/mg	30.5%
